# Test results as given in US20210052546A1, “METHODS AND PHARMACEUTICAL COMPOSITIONS FOR THE TREATMENT OF FGFR3-RELATED CHONDRODYSPLASIAS” (INSERM (INSTITUT NATIONAL DE LA SANTÉ ET DE LA RECHERCHE …, priority 2018, published 2021).
# How the values were obtained:
# Fgfr3^Y367C/+ femurs = test: Ex vivo femur cultures isolated from Fgfr3Y367C/+ mice
# Procedure: (§1) Several sets of ex vivo experiments were performed as previously described (Jonquoy et al., Hum Mol Genet, 21: 841-851, 2012). Femur embryos at day E16.5 from Fgfr3^+/+ (n=23) and Fgfr3^Y367C/+ (n=16) mice were used and incubated for 6 days in DMEM medium with antibiotics and 0.2% BSA (Sigma) supplemented with cocoa F5 or (−)-epicatechin (Sigma-0394-05-90) or DMSO (as control) at a concentration of 10 and 30 μg/ml. To establish the effect of the inhibitors, the left femur was cultured in supplemented medium and compared with the right one cultured in control medium. The bone length was measured at the beginning (before treatment) and at the end of time course. The genotype of Fgfr3^+/+ and Fgfr3^Y367C/+ mice were determined by PCR of tail DNA as previously described (Pannier et al., Biochim Biophys Acta, 1792: 140-147, 2009). All experimental procedures and protocols were approved by the Animal Care and Use Committee.
# Fgfr3^+/+ femurs = test: Ex vivo femur cultures isolated from Fgfr3+/+ mice
# Procedure: as §1
# growth plate cartilage = test: Histology and immunohistochemistry of growth plate cartilage of cultured femur explants; set-up: species or system mice
# Procedure: In order to appreciate the impact of the treatment on the growth plate cartilage, we performed histological and immunohistological studies. We selected specific markers of the cartilage, SOX9 and Collagen type X, we tested the expression of the protein FGFR3 and we also evaluated the expression of the phosphorylated Erk1/2 proteins of the […] signalling and activated by FGFR3. Limb explants were fixed after culture in 4% paraformaldehyde at 4° C. and embedded in paraffin. Serial 5 μm sections were stained with Hematoxylin-Eosin using standard protocols for histological analysis or were subjected to immunohistochemical staining. For immunohistochemistry, sections were stained with antibodies specific to FGFR3 (1:100 dilution; Sigma), anti-Collagen type X (1:50 dilution; Quartett) anti-SOX9 (1:1000 dilution; Abcam), anti-phosphorylated Erk1/2 (1:100 dilution; Cell signaling) using the Dako Envision system kit. Images were captured with an Olympus PD70-IX2-UCB microscope.
# [1] = tested on: Fgfr3^Y367C/+ chondrocytes; test: Primary cilium length in antenatal E16.5 Fgfr3Y367C/+ chondrocytes (immunocytochemistry); assay type: cell-based, mice
# Procedure: Cultured chondrocytes issued from Fgfr3^Y367C/+ were fixed at room temperature for 10 min in methanol (chilled at −20° C.), and then washed with PBS. Samples were permeabilized for 10 min with PBS containing 0.1% Triton-X100 (Sigma-Aldrich), then washed three times for 5 min. Samples were incubated with PBS containing 10% goat serum (Biowest) for 60 min at room temperature. Primary antibodies were incubated at 4° C. overnight. The following primary antibodies were used: mouse IgG1 anti-γ-tubulin (Sigma-Aldrich #T6557, 1:1000) and rabbit anti-Ar113b (Proteintech #177111-AP, 1:500). Cells were washed with PBS, and then incubated with goat anti-mouse IgG1 coupled with AlexaFluor 488 (Life Technologies, 1:1000) and goat anti-rabbit coupled with AlexaFluor 647 (Life Technologies, 1:1000) secondary antibodies for 2h at room temperature in the dark. Samples were extensively washed and mounted with a solution of DAPI-Fluoromount G (SouthernBiotech) containing DAPI (4′,6′-diamidino-2-phenylindole) for nuclear staining. Image acquisition were captured using a Spinning disk confocal microscope. […] In order to compare measured data, all confocal experiments showing PC length was acquired in same conditions using slice thickness of 0.20 μm and a pixel size of 60 nm. […] We next measured in 2D the PC lengths by IMARIS software (Bitplane).
# [2] = proximal and distal femurs, immunohistochemistry
structure (smiles),measurement,setting,value
"Oc1cc(O)c2c(c1)O[C@H](c1ccc(O)c(O)c1)[C@H](O)C2 [(−)-epicatechin, (2R,3R)-2-(3,4-dihydroxyphenyl)-3,4-dihydro-2H-chromene-3,5,7-triol]","size of the femurs, Fgfr3Y367C/+",Fgfr3^Y367C/+ femurs; 1 μg/ml (FIG. 13),did not improve
same,percentage of femur growth in Fgfr3Y367C/+ mice versus Fgfr3+/+ mice,"Fgfr3^Y367C/+ femurs; 10 μg/ml, 6 days culture",more important
same,increase of length of the Fgfr3Y367C/+ femurs comparing to Fgfr3+/+ femurs,"Fgfr3^Y367C/+ femurs; 10 μg/ml, E16.5 femurs, 6 days culture",+10%
same,"size of the femurs, Fgfr3+/+",Fgfr3^+/+ femurs; 1 μg/ml (FIG. 13),did not improve
same,growth of the Fgfr3+/+ femurs,"Fgfr3^+/+ femurs; 10 μg/ml, 6 days culture",did not impair
same,"reserve, proliferative and pre-hypertrophic zones of the growth plate cartilage",growth plate cartilage; H&E staining,increased
same,whole growth plate cartilage,growth plate cartilage; H&E staining,improved
same,epiphysis size,"growth plate cartilage; proximal and distal femur, histology",increase size
same,FGFR3 expression,growth plate cartilage; [2],strongly decreased
same,SOX9 expression,growth plate cartilage; [2],strongly decreased
same,collagen type X expression,growth plate cartilage; [2],not modified
same,phosphorylated Erk1/2 expression,growth plate cartilage; [2],slightly decreased
same,effect on primary cilium,[1]; Fgfr3Y367C/+ chondrocytes,elongation
same,primary cilium average length (A),"[1]; Fgfr3Y367C/+ chondrocytes treated with (−)-epicatechin, n=113, N=3, mean+S.E.M., untreated 2.10+0.06, in µm",2.45+0.09
